In patent publication US6727237B2, “Inhibitors of bacterial NAD synthetase” (priority 1998, dated 2004):
pIC50: −log10 of the molar value.

Biological target: T1, bacterial NAD synthetase enzyme (Bacillus subtilis, UniProt P08164)
T1 sequence (P08164 2-272 limits assumed): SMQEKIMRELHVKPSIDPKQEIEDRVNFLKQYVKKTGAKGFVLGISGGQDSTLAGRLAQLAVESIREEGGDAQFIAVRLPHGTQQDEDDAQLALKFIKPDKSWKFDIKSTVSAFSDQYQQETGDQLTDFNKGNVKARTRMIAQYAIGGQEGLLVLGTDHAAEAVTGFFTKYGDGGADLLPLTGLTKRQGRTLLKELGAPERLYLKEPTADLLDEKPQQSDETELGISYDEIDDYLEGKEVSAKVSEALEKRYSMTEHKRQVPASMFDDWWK
Test: biochemical
Type: biochemical
Settings: not given

Going from CC(C)c1ccc2[nH]c(CCCCCCCCOC(=O)c3cccc([N+](C)(C)C)c3)cc2c1 [Compound 876] to CC(C)c1ccc2[nH]c(CCCCCCCCOC(=O)c3ccc[n+](C)c3)cc2c1 [Compound 921], the pIC50 rises from 4.12 to 4.60 (0.48 log units).

Going from CC(C)c1ccc2[nH]c(CCCCCCCCOC(=O)Cc3ccc[n+](C)c3)cc2c1 [Compound 936] to CC(=O)c1ccc2[nH]c(CCCCCCCCOC(=O)c3cc[n+](C)cc3)cc2c1 [Compound 909], the pIC50 rises from 4.22 to 4.60 (0.38 log units). The second is the more potent here.

Going from COc1ccccc1OCCCCCCCCOC(=O)Cc1ccc([N+](C)(C)C)cc1 [Compound 1087] to CC(=O)c1ccccc1OCCCCCCCCOC(=O)Cc1ccc([N+](C)(C)C)cc1 [Compound 1076], the pIC50 falls from 4.40 to 3.87 (0.53 log units).

Compared with COC(=O)c1cc2ccccc2n1CCCCCCOC(=O)Cc1ccc([N+](C)(C)C)cc1 [Compound 983], COC(=O)c1cc2ccccc2n1CCCCCCCOC(=O)c1ccc[n+](C)c1 [Compound 972] is 0.20 log units lower in pIC50: 4.60 for the first, 4.40 for the second.

C[N+](C)(C)c1ccc(CC(=O)OCCCCCCCCOc2cccc(OC(=O)c3ccccc3)c2)cc1 [Compound 1079] and CN(C)c1ccc(CC(=O)OCCCCCCCCOc2ccccc2C(N)=O)cc1 [Compound 1031] are the same in pIC50: 4.44 for the first, 4.44 for the second.

C[n+]1cccc(C(=O)OCCCCCCCCOc2cccc([N+](=O)[O-])c2)c1 [Compound 1065] and COC(=O)c1cc2ccccc2n1CCCCCCCCOC(=O)c1ccc[n+](C)c1 [Compound 973] are within 0.2 log units of each other in pIC50: 4.43 for the first, 4.35 for the second.

Work on C[N+](C)(C)c1ccc(C(=O)OCCCCCCCc2cc3ccc(C(F)(F)F)cc3[nH]2)cc1 [Compound 884] yielded a pIC50 of 4.35.

Going from CC(C)c1ccc2[nH]c(CCCCCCCCOC(=O)c3cccc([N+](C)(C)C)c3)cc2c1 [Compound 876] to CC(C)c1ccc2[nH]c(CCCCCCCCOC(=O)c3ccc[n+](C)c3)cc2c1 [Compound 921], the inhibition at 100 µM rises from 95.4% to 96.7%.

Compared with CC(C)c1ccc2[nH]c(CCCCCCCCOC(=O)Cc3ccc[n+](C)c3)cc2c1 [Compound 936], CC(=O)c1ccc2[nH]c(CCCCCCCCOC(=O)c3cc[n+](C)cc3)cc2c1 [Compound 909] is lower in inhibition at 100 µM: 97.8% for the first, 97.2% for the second.

First: COC(=O)c1cc2ccccc2n1CCCCCCCCOC(=O)c1ccc[n+](C)c1 [Compound 973]
Second: COC(=O)c1cc2ccccc2n1CCCCCCCOC(=O)c1ccc[n+](C)c1 [Compound 972]
The inhibition at 100 µM of the first is higher: 97.8% for the first, 96.8% for the second.

First: COc1ccccc1OCCCCCCCCOC(=O)Cc1ccc([N+](C)(C)C)cc1 [Compound 1087]
Second: CC(=O)c1ccccc1OCCCCCCCCOC(=O)Cc1ccc([N+](C)(C)C)cc1 [Compound 1076]
The inhibition at 200 µM of the first is lower: 61% for the first, 74% for the second.

Compared with C[N+](C)(C)c1ccc(CC(=O)OCCCCCCCCOc2cccc(OC(=O)c3ccccc3)c2)cc1 [Compound 1079], CN(C)c1ccc(CC(=O)OCCCCCCCCOc2ccccc2C(N)=O)cc1 [Compound 1031] is lower in inhibition at 200 µM: 97% for the first, 23% for the second.

For C[n+]1cccc(C(=O)OCCCCCCCCOc2cccc([N+](=O)[O-])c2)c1 [Compound 1065], the inhibition at 200 µM was 81%.

In the case of COC(=O)c1cc2ccccc2n1CCCCCCOC(=O)Cc1ccc([N+](C)(C)C)cc1 [Compound 983], the inhibition at 50 µM was 92.5%.

Same assay, conditions: compound at 0.05 mM

COC(=O)c1cc2ccccc2n1CCCCCCCOC(=O)Cc1ccc(N(C)C)cc1 [Compound 960] was tested, and the “% Inhibition” value was 6.37%.

Same assay, conditions: compound at 0.1 mM (Table 314)

Going from COC(=O)c1cc2ccccc2n1CCCCCCOC(=O)c1ccc[n+](C)c1 [Compound 971] to CN(C)c1ccc(CC(=O)OCCCCCn2ccc3cc([N+](=O)[O-])ccc32)cc1 [Compound 849], the “% Inhibition” value falls from 100.00% to 90.92%.

Going from Cc1ccc2[nH]c(CCC[n+]3cccc4ccccc43)cc2c1 [Compound 402] to COc1ccc2[nH]c(CCCCCCC[n+]3ccccc3)cc2c1 [Compound 376], the “% Inhibition” value rises from 4.71% to 37.32%.

First: c1ccc(C(c2ccccc2)(c2ccccc2)c2ccc3[nH]c(CCCC[n+]4ccccc4)cc3c2)cc1 [Compound 337]
Second: CCCCc1ccc2[nH]c(CCCCC[n+]3ccccc3)cc2c1 [Compound 314]
The “% Inhibition” value of the first is higher: 35.94% for the first, 9.19% for the second.

For Fc1cc(F)c2[nH]c(CCCCCCC[n+]3ccccc3)cc2c1 [Compound 304], the “% Inhibition” value was 29.48%.

Same assay, conditions: compound at 0.2 mM (Table 312A)

Going from c1ccc2c[n+](CCCCc3cc4ccccc4[nH]3)ccc2c1 [Compound 499] to c1ccc2c[n+](CCCc3cc4ccccc4[nH]3)ccc2c1 [Compound 498], the “% Inhibition” value rises from 25.59% to 47.31%.

Going from CC(=O)c1ccc2[nH]c(CCCCCCCC[n+]3ccccc3)cc2c1 [Compound 371] to CC(=O)c1ccc2[nH]c(CCCCCCC[n+]3ccccc3)cc2c1 [Compound 370], the “% Inhibition” value falls from 43.85% to 41.34%.

First: O=C(O)c1ccc2[nH]c(CCCC[n+]3ccc4ccccc4c3)cc2c1 [Compound 601]
Second: O=C(O)c1ccc2[nH]c(CCCC[n+]3cccc4ccccc43)cc2c1 [Compound 493]
The “% Inhibition” value of the first is lower: 2.22% for the first, 9.12% for the second.

Compared with FC(F)(F)c1ccc2[nH]c(CCCCCCCC[n+]3ccccc3)cc2c1 [Compound 365], FC(F)(F)c1ccc2cc(CCCCCCCC[n+]3ccccc3)[nH]c2c1 [Compound 293] is higher in “% Inhibition” value: 16.45% for the first, 87.66% for the second.

First: O=[N+]([O-])c1cc([N+](=O)[O-])c2[nH]c(CCC[n+]3cccc4ccccc43)cc2c1 [Compound 414]
Second: O=[N+]([O-])c1cc([N+](=O)[O-])c2[nH]c(CCCCCCC[n+]3cccc4ccccc43)cc2c1 [Compound 418]
The “% Inhibition” value of the first is higher: 6.91% for the first, 5.95% for the second.

First: O=[N+]([O-])c1cc([N+](=O)[O-])c2[nH]c(CCCCC[n+]3ccccc3)cc2c1 [Compound 308]
Second: O=[N+]([O-])c1cc([N+](=O)[O-])c2[nH]c(CCCCCCC[n+]3ccc4ccccc4c3)cc2c1 [Compound 526]
The “% Inhibition” value of the first is lower: 33.71% for the first, 42.77% for the second.

Going from FC(F)(F)c1ccc2cc(CCCCCCCC[n+]3ccc4ccccc4c3)[nH]c2c1 [Compound 509] to FC(F)(F)c1ccc2[nH]c(CCCCCCCC[n+]3ccc4ccccc4c3)cc2c1 [Compound 581], the “% Inhibition” value falls from 78.00% to 21.66%.

First: O=[N+]([O-])c1ccc2[nH]c(CCC[n+]3ccccc3)cc2c1 [Compound 330]
Second: O=C(O)c1ccc2[nH]c(CCC[n+]3ccccc3)cc2c1 [Compound 384]
The “% Inhibition” value of the first is higher: 23.96% for the first, 4.10% for the second.

Going from CCCCc1ccc2[nH]c(CCC[n+]3ccc4ccccc4c3)cc2c1 [Compound 528] to CCCCc1ccc2[nH]c(CCC[n+]3cccc4ccccc43)cc2c1 [Compound 420], the “% Inhibition” value falls from 65.81% to 9.16%.

Compared with FC(F)(F)c1ccc2[nH]c(CCCC[n+]3ccc4ccccc4c3)cc2c1 [Compound 577], CC(C)c1ccc2[nH]c(CCCC[n+]3ccc4ccccc4c3)cc2c1 [Compound 535] is lower in “% Inhibition” value: 20.58% for the first, 12.61% for the second.

Compared with O=C(O)c1ccc2[nH]c(CCCCCC[n+]3cccc4ccccc43)cc2c1 [Compound 495], CC(=O)c1ccc2[nH]c(CCC[n+]3cccc4ccccc43)cc2c1 [Compound 474] is lower in “% Inhibition” value: 6.80% for the first, 2.45% for the second.

Going from CCCCc1ccc2[nH]c(CCCC[n+]3cccc4ccccc43)cc2c1 [Compound 421] to FC(F)(F)c1ccc2cc(CCCCCC[n+]3cccc4ccccc43)[nH]c2c1 [Compound 399], the “% Inhibition” value rises from 1.86% to 15.22%.

First: COc1ccc2[nH]c(CCCCCCCC[n+]3ccccc3)cc2c1 [Compound 377]
Second: Fc1ccc2[nH]c(CCCC[n+]3ccccc3)cc2c1 [Compound 343]
The “% Inhibition” value of the first is higher: 30.12% for the first, 10.82% for the second.

Compared with Cc1ccc2[nH]c(CCCCCCC[n+]3ccc4ccccc4c3)cc2c1 [Compound 514], Fc1cc(F)c2[nH]c(CCCCCCCC[n+]3cccc4ccccc43)cc2c1 [Compound 413] is lower in “% Inhibition” value: 22.32% for the first, 4.76% for the second.

Going from c1ccc(C(c2ccccc2)(c2ccccc2)c2ccc3[nH]c(CCCCCC[n+]4cccc5ccccc54)cc3c2)cc1 [Compound 447] to c1ccc(-c2ccc3[nH]c(CCC[n+]4ccccc4)cc3c2)cc1 [Compound 324], the “% Inhibition” value rises from 2.30% to 34.99%.

First: C[n+]1cccc(C(=O)OCCCCCCCCn2ccc3ccccc32)c1 [Compound 969]
Second: COc1ccc2c(ccn2CCCCCCOC(=O)c2ccc[n+](C)c2)c1 [Compound 762]
The “% Inhibition” value of the first is higher: 83.16% for the first, 40.05% for the second.

Compared with FC(F)(F)c1ccc2[nH]c(CCC[n+]3ccccc3)cc2c1 [Compound 360], O=C(c1ccccc1)c1ccc2[nH]c(CCC[n+]3ccccc3)cc2c1 [Compound 354] is lower in “% Inhibition” value: 3.46% for the first, 2.96% for the second.

For COC(=O)C=Cc1cn(CCCCC[n+]2cccc(C(=O)OC)c2)c2ccccc12 [Compound 268], the “% Inhibition” value was 11.23%.

Same assay, conditions: compound at 0.2 mM (Table 312B)

Going from CN(C)c1ccc(CC(=O)OCCCCCCCCOc2ccccc2N2CCCC2)cc1 [Compound 1046] to CN(C)c1ccc(CC(=O)OCCCCCCCCOc2ccccc2[N+](=O)[O-])cc1 [Compound 1024], the “% Inhibition” value rises from 2% to 45%.

Going from COc1ccccc1OCCCCCCCCOC(=O)c1cccnc1 [Compound 1012] to O=C(OCCCCCCCCOc1ccccc1N1CCCC1)c1cccnc1 [Compound 1019], the “% Inhibition” value rises from 2% to 3%.

Compared with CC(=O)Oc1cccc(OCCCCCCCCOC(=O)Cc2ccc(N(C)C)cc2)c1 [Compound 1027], CC(=O)c1cccc(OCCCCCCCCOC(=O)c2ccc[n+](C)c2)c1 [compound 1069] is higher in “% Inhibition” value: 2% for the first, 36% for the second.

First: CC(=O)c1ccccc1OCCCCCCCCOC(=O)c1ccc[n+](C)c1 [compound 1056]
Second: C[n+]1cccc(C(=O)OCCCCCCCCOc2ccccc2C(N)=O)c1 [compound 1060]
The “% Inhibition” value of the first is lower: 18% for the first, 19% for the second.

Going from C[N+](C)(C)c1ccc(CC(=O)OCCCCCCCCOc2ccccc2N2CCOCC2)cc1 [Compound 1093] to O=C(OCCCCCCCCOc1ccccc1N1CCOCC1)c1cccnc1 [Compound 1020], the “% Inhibition” value falls from 66% to 8%.

Same assay, conditions: compound at 0.25 mM

Going from C[N+](C)(C)c1cccc(C(=O)OCCCCc2cc3cc(Oc4ccccc4)ccc3[nH]2)c1 [Compound 871] to C[N+](C)(C)c1ccc(C(=O)OCCCCCCCCc2cc3cc(Oc4ccccc4)ccc3[nH]2)cc1 [Compound 888], the “% Inhibition” value rises from 81.9% to 99.0%.

Compared with C[N+](C)(C)c1ccc(C(=O)OCCCCc2cc3cc(C(=O)c4ccccc4)ccc3[nH]2)cc1 [Compound 895], CC(=O)c1ccc2[nH]c(CCCCOC(=O)c3ccc[n+](C)c3)cc2c1 [Compound 922] is lower in “% Inhibition” value: 95.7% for the first, 87.4% for the second.

Going from C[n+]1cccc(CC(=O)OCCCCc2cc3cc(Oc4ccccc4)ccc3[nH]2)c1 [Compound 931] to CC(C)c1ccc2[nH]c(CCCCOC(=O)c3ccc[n+](C)c3)cc2c1 [Compound 919], the “% Inhibition” value rises from 15.8% to 90.2%.

In the case of C[N+](C)(C)c1cccc(C(=O)OCCCCc2cc3ccc(C(F)(F)F)cc3[nH]2)c1 [Compound 868], the “% Inhibition” value was 13.5%.

Same assay, conditions: lead compounds (Table 318A); read-out: IC 50

CN(C)c1ccc(CC(=O)OCCCCCn2ccc3cc([N+](=O)[O-])ccc32)cc1 [Compound 849] gave a pIC50 of 4.15.
